Laboratory results as given in ChEMBL document CHEMBL1158437, “The discovery of the potent aurora inhibitor MK-0457 (VX-680)” (Bioorg Med Chem Lett, 2009).
≈ marks a conversion by molar mass, not a printed value. Calls of active or inactive are those of the source. No cut-off for these calls is given here.

Key:
Aurora kinase B [1] = target: T1, Aurora kinase B (Homo sapiens, UniProt Q96GD4); test: Inhibition of Aurora-B
COLO 205 [2] = test: Antiproliferative activity against human COLO205 cells by [3H]thymidine uptake assay; format: functional, cell-based; settings: for Activity: TDE = time-dependent effect
[3] = Aqueous solubility at pH 7.4; format: physicochemical; settings: buffer
Aurora kinase A = target: T2, Aurora kinase A (Homo sapiens, UniProt O14965)
T2 sequence (O14965 whole entry): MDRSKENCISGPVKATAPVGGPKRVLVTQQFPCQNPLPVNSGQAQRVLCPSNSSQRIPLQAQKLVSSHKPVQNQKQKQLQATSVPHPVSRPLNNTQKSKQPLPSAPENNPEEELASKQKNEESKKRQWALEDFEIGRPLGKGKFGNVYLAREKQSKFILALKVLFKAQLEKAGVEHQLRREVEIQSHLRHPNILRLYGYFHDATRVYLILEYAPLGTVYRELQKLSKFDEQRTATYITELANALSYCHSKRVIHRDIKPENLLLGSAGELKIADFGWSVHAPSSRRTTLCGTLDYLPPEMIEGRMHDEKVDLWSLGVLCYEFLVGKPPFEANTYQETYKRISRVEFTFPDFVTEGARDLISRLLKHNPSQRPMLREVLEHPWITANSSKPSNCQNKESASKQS
Description: Inhibition of Aurora-A by coupled assay

[4] = target: Proto-oncogene tyrosine-protein kinase Src (Homo sapiens, UniProt P12931); test: Inhibition of Src
[5] = target: Glycogen synthase kinase-3 beta (Homo sapiens, UniProt P49841)
COLO 205 [6] = test: Cytotoxicity against human COLO205 cells after 48 hrs by MTS assay; format: functional, cell-based; settings: COLO 205, 48 h
COLO 205 [7] = test: Induction of apoptosis in human COLO205 cells by annexin V binding; format: functional, cell-based
COLO 205 [8] = test: Induction of apoptosis in human COLO205 cells assessed as DNA fragmentation by ELISA; format: functional, cell-based
COLO 205 [9] = test: Induction of apoptosis in human COLO205 cells by TUNEL staining; format: functional, cell-based
MCF7 = test: Antitumor activity against human MCF7 cells xenograft model assessed as tumor growth inhibition at 300 mg/kg, po bid; format: functional; settings: read-out: GI
Aurora kinase C = target: T3, Aurora kinase C (Homo sapiens, UniProt Q9UQB9); test: Inhibition of Aurora-C
T3 sequence (Q9UQB9 whole entry): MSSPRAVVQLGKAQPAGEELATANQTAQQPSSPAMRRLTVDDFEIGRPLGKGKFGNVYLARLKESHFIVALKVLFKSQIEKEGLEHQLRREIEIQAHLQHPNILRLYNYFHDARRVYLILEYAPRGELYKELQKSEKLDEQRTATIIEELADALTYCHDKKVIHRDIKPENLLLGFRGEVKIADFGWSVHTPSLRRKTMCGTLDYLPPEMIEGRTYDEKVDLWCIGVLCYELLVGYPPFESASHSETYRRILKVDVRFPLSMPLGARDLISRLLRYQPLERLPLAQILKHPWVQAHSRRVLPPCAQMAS

[10] = Half life in rat; format: ADME, organism-based; settings: in vivo
[11] = Bioavailability in rat; format: ADME, organism-based; settings: in vivo
Aurora kinase B [12] = target: T1, Aurora kinase B; test: Inhibition of Aurora-B by time dependent kinetic study

Sequence of Proto-oncogene tyrosine-protein kinase Src (P12931 2-536 limits assumed): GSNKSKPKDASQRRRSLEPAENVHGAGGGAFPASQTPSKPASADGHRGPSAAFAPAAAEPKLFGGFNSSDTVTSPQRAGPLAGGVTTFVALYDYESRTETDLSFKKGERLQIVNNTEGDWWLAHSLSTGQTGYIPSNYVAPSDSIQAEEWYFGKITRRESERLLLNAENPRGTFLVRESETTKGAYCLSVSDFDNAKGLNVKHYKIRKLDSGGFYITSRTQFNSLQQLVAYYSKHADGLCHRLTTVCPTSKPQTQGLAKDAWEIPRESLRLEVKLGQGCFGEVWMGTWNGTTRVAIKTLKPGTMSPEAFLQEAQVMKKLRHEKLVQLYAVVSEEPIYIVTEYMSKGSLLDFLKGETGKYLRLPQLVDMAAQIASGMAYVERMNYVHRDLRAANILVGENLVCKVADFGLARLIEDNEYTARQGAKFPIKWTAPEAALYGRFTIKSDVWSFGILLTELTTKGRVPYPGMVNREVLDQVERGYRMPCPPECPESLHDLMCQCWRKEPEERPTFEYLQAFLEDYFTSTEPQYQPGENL
T1 sequence (Q96GD4 whole entry): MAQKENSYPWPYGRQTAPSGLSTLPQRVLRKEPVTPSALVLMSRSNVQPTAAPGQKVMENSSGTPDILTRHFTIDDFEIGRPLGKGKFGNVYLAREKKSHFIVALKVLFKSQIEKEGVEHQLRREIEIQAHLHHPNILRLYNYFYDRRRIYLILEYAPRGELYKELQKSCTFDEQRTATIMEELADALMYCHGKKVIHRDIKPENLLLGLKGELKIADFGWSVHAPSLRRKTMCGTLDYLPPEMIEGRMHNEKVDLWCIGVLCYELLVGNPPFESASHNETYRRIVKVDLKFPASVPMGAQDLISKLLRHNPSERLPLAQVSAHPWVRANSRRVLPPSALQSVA
Sequence of Glycogen synthase kinase-3 beta (P49841 whole entry): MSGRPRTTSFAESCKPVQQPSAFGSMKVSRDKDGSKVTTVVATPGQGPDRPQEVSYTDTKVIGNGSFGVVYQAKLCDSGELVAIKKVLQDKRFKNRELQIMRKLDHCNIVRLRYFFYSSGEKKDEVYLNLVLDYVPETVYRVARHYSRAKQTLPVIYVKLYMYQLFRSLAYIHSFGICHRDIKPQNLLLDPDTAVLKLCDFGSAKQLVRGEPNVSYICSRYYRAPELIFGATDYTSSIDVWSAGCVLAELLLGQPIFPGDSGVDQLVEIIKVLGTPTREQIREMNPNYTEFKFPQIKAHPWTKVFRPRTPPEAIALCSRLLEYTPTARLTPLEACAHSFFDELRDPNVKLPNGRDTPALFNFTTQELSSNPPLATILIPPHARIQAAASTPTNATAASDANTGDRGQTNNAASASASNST

| Ki (Aurora kinase B [1]) | IC50 (COLO 205 [2]) | Ki (Aurora kinase A) | SMILES | further results |
| --- | --- | --- | --- | --- |
| 0.445 µM | – | – | Cc1cc(Nc2nc(Sc3ccccc3Cl)nc3ccccc23)n[nH]1 | – |
| 0.12 µM | – | – | COc1ccc(Sc2nc(Nc3cc(C)[nH]n3)c3ccccc3n2)cc1OC | – |
| 0.052 µM | 0.47 µM | 0.0039 µM | CCC(=O)Nc1ccc(Sc2nc(Nc3cc(C)[nH]n3)cc(-c3cccnc3)n2)cc1 | solubility [3]: < 1 µg/mL |
| 0.0095 µM | – | < 0.001 µM | CCC(=O)Nc1ccc(Sc2nc(Nc3cc(C)n[nH]3)cc(N3CCN(C4CC4)CC3)n2)cc1 | solubility [3]: 12.8 µg/mL (≈ 26.7 µM) |
| 0.22 µM | 2 µM | 0.018 µM | CC(=O)Nc1ccc(Sc2nc(C)cc(Nc3cc(C)n[nH]3)n2)cc1 | solubility [3]: < 1 µg/mL |
| > 0.04 µM | – | – | Cc1cc(Nc2nc(Sc3ccc(Cl)c(Cl)c3)nc3ccccc23)n[nH]1 | Ki [4]: > 0.038 µM |
| 0.051 µM | 0.91 µM | – | Cc1cc(Nc2nc(Sc3ccc(NC(=O)C4CC4)cc3)nc3ccccc23)n[nH]1 | – |
| 0.115 µM | 2 µM | 0.01 µM | CCC(=O)Nc1ccc(Sc2nc(Nc3cc(C)[nH]n3)cc(C(C)(C)C)n2)cc1 | solubility [3]: 11.2 µg/mL (≈ 27.3 µM) |
| 0.105 µM | 5.77 µM | < 0.001 µM | CC(=O)N(C)c1ccc(Sc2nc(Nc3cc(C)[nH]n3)c3ccccc3n2)cc1 | Ki [4]: 0.796 µM |
| 0.059 µM | 1.42 µM | 0.0039 µM | CCC(=O)Nc1ccc(Sc2nc(Nc3cc(C)n[nH]3)cc(C3CC3)n2)cc1 | – |
| > 0.04 µM | > 12 µM | – | Cc1cc(Nc2nc(Sc3ccc4ccccc4c3)nc3ccccc23)n[nH]1 | Ki [4]: > 0.5 µM; Ki [5]: > 0.15 µM |
| 0.02 µM | – | 0.0016 µM | CCC(=O)Nc1ccc(Sc2nc(Nc3cc(C)[nH]n3)cc(N3CCN(C)CC3)n2)cc1 | Activity (COLO 205 [2]): tde; solubility [3]: 63.4 µg/mL (≈ 140 µM) |
| > 1.1 µM | – | – | Cc1cc(Nc2nc(Sc3c(Cl)cccc3Cl)nc3ccccc23)n[nH]1 | – |
| – | – | – | CCC(=O)Nc1ccc(Sc2nc(Nc3cc(C)[nH]n3)cc(N3CCN(C(C)(C)C)CC3)n2)cc1 | Activity (COLO 205 [2]): tde |
| 0.008 µM | – | 0.0016 µM | CCC(=O)Nc1ccc(Sc2nc(Nc3cc(C)n[nH]3)cc(N3CCCCC3)n2)cc1 | – |
| – | – | – | CCC(=O)Nc1ccc(Sc2nc(Nc3cc(C)[nH]n3)cc(N3CCNCC3)n2)cc1 | Activity (COLO 205 [2]): tde |
| 0.023 µM | 0.73 µM | 0.0024 µM | CCC(=O)Nc1ccc(Sc2nc(Nc3cc(C)[nH]n3)cc(N3CCC3)n2)cc1 | – |
| 0.185 µM | – | – | Cc1cc(Nc2nc(Sc3cccc(Cl)c3)nc3ccccc23)n[nH]1 | – |
| > 1.1 µM | – | – | Cc1cc(Nc2nc(Sc3ccc(Cl)cc3Cl)nc3ccccc23)n[nH]1 | – |
| – | – | – | CC(=O)Nc1ccc(Sc2nc(Nc3cc(C)n[nH]3)c3ccccc3n2)cc1 | IC50 (COLO 205 [6]): 8.5 µM; Activity (COLO 205 [7]): Active; Activity (COLO 205 [8]): Active; Activity (COLO 205 [9]): Active; inhibition in vivo at 300 mg/kg (MCF7): 50% |
| 0.575 µM | – | – | COc1ccc(Sc2nc(Nc3cc(C)[nH]n3)c3ccccc3n2)cc1 | – |
| 0.23 µM | 0.78 µM | – | Cc1cc(Nc2nc(Sc3ccc(NS(C)(=O)=O)cc3)nc3ccccc23)n[nH]1 | – |
| 0.014 µM | – | 0.0017 µM | CCC(=O)Nc1ccc(Sc2nc(Nc3cc(C)n[nH]3)cc(N3CCOCC3)n2)cc1 | solubility [3]: 5.4 µg/mL (≈ 12.3 µM) |

| Ki (Aurora kinase B [1]) | IC50 (COLO 205 [2]) | Ki (Aurora kinase A) | SMILES | further results |
| --- | --- | --- | --- | --- |
| – | – | – | CC(=O)Nc1ccc(Sc2nc(Nc3cc(C)[nH]n3)c3ccccc3n2)cc1 | Ki (Aurora kinase C): 0.011 µM; half-life [10]: 1.5 h; bioavailability [11]: 40% |
| > 1.1 µM | – | – | Cc1cc(Nc2nc(Sc3ccc(Cl)cc3)nc3ccccc23)n[nH]1 | – |
| – | – | – | CCC(=O)Nc1ccc(Sc2nc(Nc3cc(C)[nH]n3)cc(N3CCN(C4CC4)CC3)n2)cc1 | Activity (COLO 205 [2]): tde |
| 0.145 µM | 0.87 µM | < 0.001 µM | CCC(=O)Nc1ccc(Sc2nc(Nc3cc(C)[nH]n3)cc(-c3ccccc3)n2)cc1 | – |
| – | – | – | Cc1cc(Nc2cc(N3CCN(C)CC3)nc(Sc3ccc(NC(=O)C4CC4)cc3)n2)[nH]n1 [TOZASERTIB] | solubility [3]: 6.8 µg/mL (≈ 14.6 µM) |
| 0.057 µM | 0.83 µM | – | CCC(=O)Nc1ccc(Sc2nc(Nc3cc(C)[nH]n3)c3ccccc3n2)cc1 | – |
| 0.015 µM | 0.21 µM | – | CC(=O)Nc1ccc(Sc2nc(Nc3cc(C4CC4)[nH]n3)c3ccccc3n2)cc1 | – |
| 0.011 µM | – | 0.0013 µM | CCC(=O)Nc1ccc(Sc2nc(Nc3cc(C)n[nH]3)cc(N3CCN(C(C)(C)C)CC3)n2)cc1 | solubility [3]: 221 µg/mL (≈ 446 µM); half-life [10]: 8 h; Ki (Aurora kinase B [12]): 0.0008 µM |
| 0.59 µM | – | – | Cc1cc(Nc2nc(Sc3ccccc3)nc3ccccc23)n[nH]1 | – |
| 0.675 µM | – | – | Cc1cc(Nc2nc(Sc3cccc(Cl)c3Cl)nc3ccccc23)n[nH]1 | – |
| 0.018 µM | – | 0.0037 µM | CCC(=O)Nc1ccc(Sc2nc(Nc3cc(C)n[nH]3)cc(N3CCNCC3)n2)cc1 | solubility [3]: 296 µg/mL (≈ 675 µM) |
| 0.083 µM | – | 0.0024 µM | CC(=O)Nc1ccc(Sc2nc(Nc3cc(C)[nH]n3)cc(-c3ccccc3)n2)cc1 | – |
| – | 0.019 µM | – | Cc1cc(Nc2cc(N3CCN(C)CC3)nc(Sc3ccc(NC(=O)C4CC4)cc3)n2)n[nH]1 [TOZASERTIB] | Activity (COLO 205 [2]): tde |
| 0.025 µM | – | < 0.001 µM | CCC(=O)Nc1ccc(Sc2nc(Nc3cc(C)n[nH]3)cc(N3CCN(CC)CC3)n2)cc1 | solubility [3]: 114 µg/mL (≈ 245 µM) |
| 0.995 µM | – | – | COc1ccccc1Sc1nc(Nc2cc(C)[nH]n2)c2ccccc2n1 | Ki [4]: > 1 µM |
| > 1.1 µM | 2.2 µM | – | CC(=O)Nc1ccc(Sc2nc(Nc3cc[nH]n3)c3ccccc3n2)cc1 | – |
| 0.049 µM | 1 µM | < 0.003 µM | CCC(=O)Nc1ccc(Sc2nc(Nc3cc(C)[nH]n3)cc(-c3ccncc3)n2)cc1 | – |
| – | – | – | CCC(=O)Nc1ccc(Sc2nc(Nc3cc(C)[nH]n3)cc(N3CCN(CC)CC3)n2)cc1 | Activity (COLO 205 [2]): tde |
| 0.207 µM | 4.05 µM | 0.086 µM | CC(=O)Nc1ccc(Sc2nccc(Nc3cc(C)[nH]n3)n2)cc1 | solubility [3]: 13.8 µg/mL (≈ 40.5 µM) |
| 0.25 µM | 2.87 µM | – | Cc1cc(Nc2nc(Sc3ccc(NC(=O)OC(C)(C)C)cc3)nc3ccccc23)n[nH]1 | Ki [4]: > 3 µM; Ki [5]: > 4 µM |
| 0.153 µM | 0.72 µM | 0.0051 µM | CCC(=O)Nc1ccc(Sc2nc(C)cc(Nc3cc(C)n[nH]3)n2)cc1 | solubility [3]: 4.2 µg/mL (≈ 11.4 µM) |
| – | – | 0.081 µM | Cc1cc(Nc2nc(-c3ccncc3)nc3ccccc23)n[nH]1 | Ki [4]: 0.181 µM; Ki [5]: 0.073 µM |
